Results as given in patent US20220009920A1 (GB005, Inc., priority 2020, published 2022).

What was measured:
[1] = tested on: BTK in RAMOS B cells; experiment: Assay to determine BTK activity in RAMOS B cells (anti-IgM, FLIPR Calcium 6); assay type: cell-based; conditions: anti-IgM EC80, calcium readout
Protocol: On the day before assay, Ramos B cells were plated in plating medium (RPMI1640 medium containing 1% FBS and 1× pencillin-streptomycin). On the day of the assay, 2× dye solution was prepared following the manual of the FLIRP Calcium 6 Assay Kit: Dilute the dye with assay buffer (20 mM HEPES in IX HBSS, pH7.4); Add probenecid to the final concentration of 5 mM; vortex vigorously for 1-2 minutes. Cells were collected by centrifuging, and the pellet was re-suspended in plating medium. After counting, cells were re-suspended at a density of 3×10^6/ml in plating medium. Equal volume of 2× dye solution was added to the cell suspension. Cells were then plated at 20 μl/well into a 384-well poly-D-lysine coated plate. Plate was centrifuged at 1000 rpm for 3 minutes and then incubated at 37° C. for 2 hours followed by an additional 15-minute incubation at 25° C. Compounds were prepared at 3× concentration in dilution buffer (20 mM HEPES and 0.1% BSA in 1×HBSS, pH 7.4). Serially diluted compound was transferred from source plate to a 384-well compound plate by using an Echo 550 (Labcyte). 20 μl/well compound dilution buffer was added to the compound plate and mixed on plate shaker for 2 mins. 4× EC80 of Anti-IgM (Jackson ImmunoResearch) was prepared in dilution buffer and 20 μl/well was added to a new 384-well compound plate. After 60 mins of incubation at 25° C. in the dark; cell plate, compound plate containing 4×EC80 of anti-IgM and FLIPR tips were placed into FLIPR (Molecular Devices). 10 ul/well of 4×EC80 anti-IgM was transferred to the cell plate by FLIPR. Plates were read for 160 sec with 1 sec interval.

[2] = target: T1, BTK (Homo sapiens, UniProt Q06187); experiment: Assay to determine activity against BTK; assay type: biochemical; conditions: 1 mM ATP, 2 nM BTK, 90 minutes at room temperature
T1 construct: purchased Cama
T1 sequence (Q06187 whole entry): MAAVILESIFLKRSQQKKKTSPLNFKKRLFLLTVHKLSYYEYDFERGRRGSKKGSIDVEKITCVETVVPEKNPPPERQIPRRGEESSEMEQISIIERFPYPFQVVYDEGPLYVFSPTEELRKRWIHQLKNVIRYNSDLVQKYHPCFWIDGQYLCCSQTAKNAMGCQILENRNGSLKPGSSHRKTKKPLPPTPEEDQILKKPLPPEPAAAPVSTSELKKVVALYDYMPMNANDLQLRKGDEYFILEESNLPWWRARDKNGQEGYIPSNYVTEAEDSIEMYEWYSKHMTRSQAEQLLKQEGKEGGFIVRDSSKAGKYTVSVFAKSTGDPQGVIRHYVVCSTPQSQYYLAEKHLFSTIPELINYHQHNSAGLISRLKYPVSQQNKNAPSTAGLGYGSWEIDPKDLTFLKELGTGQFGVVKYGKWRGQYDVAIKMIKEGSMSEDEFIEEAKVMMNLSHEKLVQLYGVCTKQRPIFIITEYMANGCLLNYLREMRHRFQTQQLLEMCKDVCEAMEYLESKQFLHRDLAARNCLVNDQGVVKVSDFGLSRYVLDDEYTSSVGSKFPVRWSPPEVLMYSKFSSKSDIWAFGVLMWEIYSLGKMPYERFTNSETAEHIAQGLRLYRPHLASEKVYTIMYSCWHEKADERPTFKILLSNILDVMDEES
Protocol: Solutions of compounds (test or control) in DMSO were prepared at the desired concentrations, and serially diluted to 11 concentrations by 3-fold dilution in 384pp-plate using TECAN EVO200. 20 nL of stock were transferred to 384 plate using Echo550. DMSO was used as vehicle control.
(BTK was obtained from Cama; FLPeptide2 was obtained from PerkinElmer and Ibrutinib was obtained from Selleck.) 5 μL of ATP solution were added to each well, followed by addition of 15 μL of BTK solution to initiate the reaction. (Note the final volume of each well was 20 μL containing MgCl2 (10 mM), Brij-35 (0.01%), DTT (2 mM), BSA (0.05%), EGTA (1 mM), HEPE (pH7.5) (50 mM), FLPeptide (1.5 uM), ATP (1 mM) and BTK (2 nM).
The plates were incubated at room temperature for 90 minutes and then stopping buffer added (75 μL, containing 0.5 M EDTA) to terminate the reaction. Samples from each well were analyzed using EZ reader. The % remaining activity was calculated using read conversion ratio (CR) according to the equation: […]
XLFit (equation 201) was used to calculate IC50's by floating both bottom and top.

SMILES | IC50 ([1]; Homo sapiens, Ramos) [nM] | IC50 [2] [nM] | IC50 [1] [nM]
CC#CC(=O)N[C@H]1CCCN(c2c(F)cc(C(N)=O)c3[nH]c4c(c23)CCCCC4)C1 [Compound 4-1, (S)-1-(3-(but-2-ynamido)piperidin-1-yl)-2-fluoro-5,6,7,8,9,10-hexahydrocyclohepta[b]indole-4-carboxamide] | 10 to 100 | 10 to 100 | –
C=CC(=O)N1CC[C@@H]2CCN(c3c(F)cc(C(N)=O)c4[nH]c5c(c34)CCCCC5)C[C@@H]21 [Compound 4-2, 1-((3aS,7aR)-1-acryloyloctahydro-6H-pyrrolo[2,3-c]pyridin-6-yl)-2-fluoro-5,6,7,8,9,10-hexahydrocyclohepta[b]indole-4-carboxamide] | ≥ 100 | ≥ 100 | –
CC#CC(=O)N[C@H]1C[C@H](O)CN(c2c(F)cc(C(N)=O)c3[nH]c4c(c23)CCCCC4)C1 [Compound 4-3, 1-((3S,5S)-3-(but-2-ynamido)-5-hydroxypiperidin-1-yl)-2-fluoro-5,6,7,8,9,10-hexahydrocyclohepta[b]indole-4-carboxamide] | 10 to 100 | 10 to 100 | –
CC#CC(=O)N[C@H]1C[C@@H](O)CN(c2c(F)cc(C(N)=O)c3[nH]c4c(c23)CCCCC4)C1 [Compound 4-4, 1-((3S,5R)-3-(but-2-ynamido)-5-hydroxypiperidin-1-yl)-2-fluoro-5,6,7,8,9,10-hexahydrocyclohepta[b]indole-4-carboxamide] | ≥ 100 | 10 to 100 | –
C=CC(=O)Nc1cccc(-c2c(F)cc(C(N)=O)c3[nH]c4c(c23)CCCCC4)c1 [Compound 5-3, 1-(3-acrylamidophenyl)-2-fluoro-5,6,7,8,9,10-hexahydrocyclohepta[b]indole-4-carboxamide] | 10 to 100 | 10 to 100 | –
CC#CC(=O)N[C@@H]1C=C(c2c(F)cc(C(N)=O)c3[nH]c4c(c23)CCCCC4)CCC1 [Compound 5-9, 1-[(3S)-3-(but-2-ynoylamino)cyclohexen-1-yl]-2-fluoro-5,6,7,8,9,10-hexahydrocyclohepta[b]indole-4-carboxamide] | 10 to 100 | 10 to 100 | –
C=CC(=O)N1CCC=C(c2ccc(C(N)=O)c3[nH]c4c(c23)CC2(CC4)OCCO2)C1 [Compound 6-1, 4′-(1-prop-2-enoyl-3,6-dihydro-2H-pyridin-5-yl)spiro[1,3-dioxolane-2,6′-5,7,8,9-tetrahydrocarbazole]-1′-carboxamide] | 10 to 100 | 10 to 100 | –

The next lines start with the values.

IC50 ([1]; Homo sapiens, Ramos) [nM] | IC50 [2] [nM] | IC50 [1] [nM] | SMILES
10 to 100 | 10 to 100 | – | C=CC(=O)N1CCC=C(c2ccc(C(N)=O)c3[nH]c4c(c23)CC2(CC4)CC2)C1 [Compound 7-1, 4-(1-prop-2-enoyl-3,6-dihydro-2H-pyridin-5-yl)spiro[5,7,8,9-tetrahydro-carbazole-6,1′-cyclopropane]-1-carboxamide]
≥ 100 | ≥ 100 | – | C=CC(=O)N1CCC=C(c2ccc(C(N)=O)c3[nH]c4c(c23)CC2(CCC2)CC4)C1 [Compound 7-3, 5-(1-acryloyl-1,2,5,6-tetrahydropyridin-3-yl)-1,2,4,9-tetrahydrospiro[carbazole-3,1′-cyclobutane]-8-carboxamide]
≥ 100 | ≥ 100 | – | C=CC(=O)N1CCc2c(cccc2-c2ccc(C(N)=O)c3[nH]c4c(c23)CC2(CCC2)CC4)C1 [Compound 7-4, 5-(2-acryloyl-1,2,3,4-tetrahydroisoquinolin-5-yl)-1,2,4,9-tetrahydrospiro[carbazole-3,1′-cyclobutane]-8-carboxamide]
10 to 100 | 10 to 100 | – | C=CC(=O)N1CCC=C(c2ccc(C(N)=O)c3[nH]c4c(c23)CC2(CCCC2)CC4)C1 [Compound 7-5, 5-(1-acryloyl-1,2,5,6-tetrahydropyridin-3-yl)-1,2,4,9-tetrahydrospiro[carbazole-3,1′-cyclopentane]-8-carboxamide]
≥ 100 | ≥ 100 | – | C=CC(=O)N1CCC=C(c2ccc(C(N)=O)c3[nH]c4c(c23)CC2(CCCO2)CC4)C1 (stereo not shown) [Compound 7-6, 5-(1-acryloyl-1,2,5,6-tetrahydropyridin-3-yl)-1,2,4,4′,5′,9-hexahydro-3′H-spiro[carbazole-3,2′-furan]-8-carboxamide]
< 10 | < 10 | – | C=CC(=O)N1CCC=C(c2c(F)cc(C(N)=O)c3[nH]c4c(c23)CC2(CC4)CC2)C1 [Compound 7-11, 5-(1-acryloyl-1,2,5,6-tetrahydropyridin-3-yl)-6-fluoro-1,2,4,9-tetrahydrospiro[carbazole-3,1′-cyclopropane]-8-carboxamide]
– | < 10 | 10 to 100 | C=CC(=O)N1CCc2c(cccc2-c2c(F)cc(C(N)=O)c3[nH]c4c(c23)CC2(CC4)CC2)C1 [Compound 7-12, 5-(2-acryloyl-1,2,3,4-tetrahydroisoquinolin-5-yl)-6-fluoro-1,2,4,9-tetrahydrospiro[carbazole-3,1′-cyclopropane]-8-carboxamide]
≥ 100 | 10 to 100 | – | C=CC(=O)N1CCc2c(cccc2-c2c(F)cc(C(N)=O)c3[nH]c4c(c23)CC2(CCC2)CC4)C1 [Compound 7-13, 5-(2-acryloyl-1,2,3,4-tetrahydroisoquinolin-5-yl)-6-fluoro-1,2,4,9-tetrahydrospiro[carbazole-3,1′-cyclobutane]-8-carboxamide]
≥ 100 | ≥ 100 | – | C=CC(=O)N1CCc2c(cccc2-c2c(F)cc(C(N)=O)c3[nH]c4c(c23)CC2(CCCC2)CC4)C1 [Compound 7-14, 5-(2-acryloyl-1,2,3,4-tetrahydroisoquinolin-5-yl)-6-fluoro-1,2,4,9-tetrahydrospiro[carbazole-3,1′-cyclopentane]-8-carboxamide]
– | 10 to 100 | ≥ 100 | C=CC(=O)N1CCc2c(cccc2-c2c(F)cc(C(N)=O)c3[nH]c4c(c23)CC2(CCCO2)CC4)C1 (stereo not shown) [Compound 7-15, 5-(2-acryloyl-1,2,3,4-tetrahydroisoquinolin-5-yl)-6-fluoro-1,2,4,4′,5′,9-hexahydro-3′H-spiro[carbazole-3,2′-furan]-8-carboxamide]
– | < 10 | 10 to 100 | C=CC(=O)N1CCc2c(cccc2-c2c(F)cc(C(N)=O)c3[nH]c4c(c23)CC2(CCCO2)CC4)C1 (stereo not shown) [Compound 7-16, 5-(2-acryloyl-1,2,3,4-tetrahydroisoquinolin-5-yl)-6-fluoro-1,2,4,4′,5′,9-hexahydro-3′H-spiro[carbazole-3,2′-furan]-8-carboxamide]
≥ 100 | 10 to 100 | – | C=CC(=O)N1CCc2c(cccc2-c2c(F)cc(C(N)=O)c3[nH]c4c(c23)CC2(CCOC2)CC4)C1 (stereo not shown) [Compound 7-17, 5-(2-acryloyl-1,2,3,4-tetrahydroisoquinolin-5-yl)-6-fluoro-1,2,4,4′,5′,9-hexahydro-2′H-spiro[carbazole-3,3′-furan]-8-carboxamide]
– | 10 to 100 | ≥ 100 | C=CC(=O)N1CCc2c(cccc2-c2c(F)cc(C(N)=O)c3[nH]c4c(c23)CC2(CCOC2)CC4)C1 (stereo not shown) [Compound 7-18, 5-(2-acryloyl-1,2,3,4-tetrahydroisoquinolin-5-yl)-6-fluoro-1,2,4,4′,5′,9-hexahydro-2′H-spiro[carbazole-3,3′-furan]-8-carboxamide]
≥ 100 | 10 to 100 | – | C=CC(=O)N1CCc2c(cccc2-c2c(F)cc(C(N)=O)c3[nH]c4c(c23)CC2(CCOCC2)CC4)C1 [Compound 7-19, 5-(2-acryloyl-1,2,3,4-tetrahydroisoquinolin-5-yl)-6-fluoro-1,2,2′,3′,4,5′,6′,9-octahydrospiro[carbazole-3,4′-pyran]-8-carboxamide]
10 to 100 | 10 to 100 | – | C=CC(=O)N[C@H]1C[C@H](F)CN(c2c(F)cc(C(N)=O)c3[nH]c4c(c23)CC2(CC4)CC2)C1 [Compound 7-22, 5-((3S,5S)-3-acrylamido-5-fluoropiperidin-1-yl)-6-fluoro-1,2,4,9-tetrahydrospiro[carbazole-3,1′-cyclopropane]-8-carboxamide]
< 10 | < 10 | – | CC#CC(=O)N[C@H]1C[C@H](F)CN(c2c(F)cc(C(N)=O)c3[nH]c4c(c23)CC2(CC4)CC2)C1 [Compound 7-23, 5-((3S,5S)-3-(but-2-ynamido)-5-fluoropiperidin-1-yl)-6-fluoro-1,2,4,9-tetrahydrospiro[carbazole-3,1′-cyclopropane]-8-carboxamide]
